Measured values published in patent US20040076954A1, “Genomics-driven high speed cellular assays, development thereof, and collections of cellular reporters” (IRM, LLC, priority 2001, published 2004).

How the values were obtained:
[1] = test system: Mouse macrophage cell line RAW264.7; assay: Antibiotic selection of transfected RAW264.7 cells; format: cell-based; settings: transfected RAW cells
Method: Mouse macrophage cell line RAW264.7 from the ATCC was used for reporter gene assays. RAW cells were cultured at 37° C. in Dulbecco's modified Eagle medium (GibcoBRL), supplemented with 10% defined fetal bovine serum (low endotoxin, Hyclone). Transient transfection was carried out in 6 well plates with SuperFect Transfection Reagent (Qiagen) using the protocol provided by the supplier. In brief, 6×10^5 cells were seeded in each well the day before transfection. 2 μg of DNA and 10 μl of SuperFect reagent were added to the cells. For the purposed of selecting stable cell lines, vectors containing antibiotic resistant genes (e.g. hygromycin, puromycin and blasticidin) were also included at a ratio of 1:5 or 1:10 to the reporter DNA. 48 hours post-transfection, the cells were transferred into 10 cm dishes. An antibiotic was added at 150 μg/ml of hygromycin, 400 ng/ml of puromycin, or 3 μg/ml of blasticidin. […] Two weeks later, the cells which sustained antibiotic selection were seeded into three 96 well plates at the density of 0.3 cell/well. After 3-4 weeks, 44 single clones each of MALH (hygromycin) and MALB (blasticidin) were harvested and assayed. Pools of MALH or MALB were also combined for population experiments. The total selection time was 5-6 weeks.

[2] = test system: HepG2 (human hepatoma cells); assay: Gene chip (Affymetrix) expression profiling of HGF-treated hepatocyte cells; format: cell-based; settings: HepG2, 75 ng/ml HGF 4 hours vs untreated
Method: A method assessing the responsiveness of gene transcript to Hepatocyte Growth Factor (HGF) in a human hepatocyte cell line is exemplified.
Human hepatocyte cells, HepG2 (human hepatoma cells ATCC accession no. HB-8065), were plated at 8×10^5 cells per ml in a 4 separate wells of a 6-well plate and incubated overnight at 37° C., 5% CO2. Eighteen hours after plating, 2 wells of cells were treated with 75 ng/ml of HGF continuously for 4 hours, while two samples were left untreated. Cells were harvested by 1×PBS wash, scraped into a 15 ml conical tube and placed on ice. Samples were centrifuged to pellet the cells, flash frozen on dry ice and submitted for RNA extraction.
The following protocol was used to isolate total RNA from the 2 untreated and 2 treated samples:
The following protocol was used to generate cDNA then cRNA from the total RNA preparation:
The following protocol was used to hybridize the cRNA to gene chips (Affymetrix):
Following the hybridization, the chips are analyzed for relative fluorescence intensity corresponding to each set of oligonucleotides. The location of each oligonucleotide and the gene it represents on the array is known. Using, for example, Microsoft Excel, a list of each oligonucleotide, corresponding gene and relative intensity are recorded and saved. The data sets for treated and untreated are compared side-by-side for average-fold change. The resulting list is parsed by magnitude fold-change and can be represented as text (Excel), or visually (Gene-Spring or Tree-view).
The following details the results of a chip study. […] The list begins with the greatest fold induction (FC) and ends with greatest fold repression.

Molecule: COc1ccc(C[C@H](N)C(=O)N[C@H]2[C@@H](O)[C@H](n3cnc4c(N(C)C)ncnc43)O[C@@H]2CO)cc1 [puromycin]
- cell death within 3 days of antibiotic selection ([1]; 400 ng/ml puromycin): not

Molecule: Hepatocyte Growth Factor [HGF]
- FC (fold change) 277_at myeloid cell differentiation protein (MCL1) (L08246) [2]: 6 fold
- FC (fold change) 529_at dual-specificity protein phosphatase (U15932) [2]: 5 fold
- FC (fold change) 660_at mitochondrial 1,25-dihydroxyvitamin D3 24-hydroxylase (L13286) [2]: 9 fold
- FC (fold change) 1237_at IEX-1 radiation-inducible immediate-early gene (S81914) [2]: 8 fold
- FC (fold change) 1379_at HUMECK protein tyrosine kinase (M59371) [2]: 8 fold
- FC (fold change) 1890_at TGF-beta superfamily protein (AB000584) [2]: 5 fold
- FC (fold change) 2057_g_at fibroblast growth factor (FGF) receptor-1 (M34641) [2]: 5 fold
- FC (fold change) 31888_s_at IPL (AF001294) [2]: 14 fold
- FC (fold change) 32786_at jun-B (X51345) [2]: 7 fold
- FC (fold change) 33146_at myeloid cell differentiation protein (MCL1) (L08246) [2]: 6 fold
- FC (fold change) 34476_r_at epiregulin (D30783) [2]: 15 fold
- FC (fold change) 34898_at amphiregulin (AR) (M30704) [2]: 13 fold
- FC (fold change) 35372_r_at beta-thromboglobulin-like protein (M17017) [2]: 8 fold
- FC (fold change) 35454_at KIAA0450 protein (AB007919) [2]: 5 fold
- FC (fold change) 35597_at C8FW phosphoprotein (AJ000480) [2]: 7 fold
- FC (fold change) 36097_at transcription factor ETR101 (M62831) [2]: 5 fold
- FC (fold change) 36324_at A2b adenosine receptor (X68487) [2]: 6 fold
- FC (fold change) 36344_at proteinase-activated receptor-2 (U34038) [2]: 7 fold
- FC (fold change) 36345_g_at proteinase-activated receptor-2 (U34038) [2]: 8 fold
- FC (fold change) 36543_at placental tissue factor (J02931) [2]: 7 fold
- FC (fold change) 36711_at novel MAFF LIKE protein (AL021977) [2]: 8 fold
- FC (fold change) 36742_at putative zinc finger protein (ZNFB7) (U34249) [2]: 5 fold
- FC (fold change) 37680_at gravin (U81607) [2]: 7 fold
- FC (fold change) 38125_at beta-migrating plasminogen activator inhibitor I (M14083) [2]: 13 fold
- FC (fold change) 38247_at proteinase activated receptor-2 mRNA, 3UTR (U67058) [2]: 9 fold
- FC (fold change) 38772_at CYR61 (Y11307) [2]: 9 fold
- FC (fold change) 39105_at vasodilator-stimulated phosphoprotein (VASP) (Z46389) [2]: 11 fold
- FC (fold change) 39248_at za55a01.s1 cDNA (N74607) [2]: 6 fold
- FC (fold change) 40385_at chemokine exodus-1 mRNA (U64197) [2]: 19 fold
- FC (fold change) 40614_at SHB (X75342) [2]: 8 fold
- FC (fold change) 41193_at DUSP6 (AB013382) [2]: 6 fold
- FC (fold change) 41524_at inositol polyphosphate 1-phosphatase (L08488) [2]: 6 fold
- FC (fold change) 1974_s_at p53 cellular tumor antigen (X02469) ([2]; negative = repression): −5 fold
- FC (fold change) 2089_s_at H06628 similar to ERBB-3 receptor protein-tyrosine kinase precursor ([2]; negative = repression): −5 fold
- FC (fold change) 32787_at epidermal growth factor receptor (HER3) (M34309) ([2]; negative = repression): −8 fold
- FC (fold change) 36048_at HRIHFB2436 (AB015342) ([2]; negative = repression): −5 fold
- FC (fold change) 37487_at KIAA1093 protein (AB029016) ([2]; negative = repression): −5 fold

Molecule: CN(CC[C@H](N)CC(=O)N[C@H]1C=C[C@H](n2ccc(N)nc2=O)O[C@@H]1C(=O)O)C(=N)N [blasticidin]
- cell death within 3 days of antibiotic selection ([1]; 3 μg/ml blasticidin): Massive cell death
